Laboratory results published in US20140113093A1, “Polymers with reduced estrogenic activity” (SOLVAY SPECIALITY POLYMERS USA, LLC, priority 2011, published 2014).

biological target: T1, Estrogen receptor α (ERα) (Homo sapiens, UniProt P03372); assay: GeneBLAzer Cell-Based Nuclear Receptor Assay (beta-lactamase reporter), EC50 response value to ERα; details: ER-α-UAS-bla GripTite 293 cells, agonist mode, 16-24 hours at 37° C., monomers tested at 7 to 250000 nM
T1 construct: host or cells: ER-α-UAS-bla GripTite 293 cells
T1 sequence (P03372 311-547 limits assumed): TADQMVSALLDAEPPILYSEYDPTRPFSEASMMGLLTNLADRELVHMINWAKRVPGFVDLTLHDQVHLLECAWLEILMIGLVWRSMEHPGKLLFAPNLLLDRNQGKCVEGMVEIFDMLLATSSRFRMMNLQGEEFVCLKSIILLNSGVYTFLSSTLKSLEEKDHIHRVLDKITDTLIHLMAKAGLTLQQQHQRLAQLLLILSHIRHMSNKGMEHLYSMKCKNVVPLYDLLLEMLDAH
Protocol: The plate is incubated for 16-24 hours at 37° C./5% CO2 in a humidified incubator. […] The plate is read on a fluorescence plate reader.
The following equations are used for each set of data points: […]

How did the EC50 turn out when `CC(C)(c1ccc(O)cc1)c1ccc(C(C)(C)c2ccc(O)cc2)cc1` [BisP, α,α′-Bis(4-hydroxyphenyl)-1,4-diisopropylbenzene, reference compound] was run?
Its EC50 is over 25 µM.

`O=S(=O)(c1ccc(O)cc1)c1ccc(O)cc1` [Bisphenol S, 4,4′-dihydroxy-diphenylsulfone, reference compound] was tested. Which EC50 did it give?
Its EC50 is 4.14 µM.

For `O=S(=O)(c1ccc(O)cc1)c1ccc(-c2ccc(S(=O)(=O)c3ccc(O)cc3)cc2)cc1` [Example 1 (HPS), Hydroxysulfonebiphenyl], which EC50 is on record?
The EC50 was over 79.1 µM.

How did the EC50 turn out when `O=S(=O)(c1ccc(Oc2ccc(O)cc2)cc1)c1ccc(Oc2ccc(O)cc2)cc1` [Example 3 (HBS), Bis-4-hydroxyphenoxydiphenylsulfone] was run?
The EC50 was over 79.1 µM.

For `O=P(c1ccccc1)(c1ccc(Oc2ccc(O)cc2)cc1)c1ccc(Oc2ccc(O)cc2)cc1` [Example 5 (HPPPO), Bis-4-hydroxyphenoxyphenylphosphine oxide], which EC50 is on record?
The EC50 was over 250 µM.
